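Step 1: Grow cells in 96-well plates. Step 2: Expose to compound for 48 hours at 5 concentrations. Step 3: Interpolate endpoints linearly; if unreached, use highest concentration. GI50 = concentration required for 50% inhibition of growth. At the TGI there is no net growth.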
Assays:
Test in all cases: NCI-60 cell line screen, 48 h
LOX IMVI melanoma = tested on: LOX IMVI melanoma
HCT-116 colon = tested on: HCT-116 colon
M14 melanoma = tested on: M14 melanoma
SNB-19 CNS = tested on: SNB-19 CNS
SF-268 CNS = tested on: SF-268 CNS
SN12C renal = tested on: SN12C renal
SF-295 CNS = tested on: SF-295 CNS
SK-MEL-5 melanoma = tested on: SK-MEL-5 melanoma
BT-549 breast = tested on: BT-549 breast
HOP-92 NSCLC = tested on: HOP-92 NSCLC

Structure (SMILES) | TGI (LOX IMVI melanoma) [µM] | TGI (HCT-116 colon) [µM] | TGI (M14 melanoma) [µM] | TGI (SNB-19 CNS) [µM] | TGI (SF-268 CNS) [µM] | TGI (SN12C renal) [µM] | TGI (SF-295 CNS) [µM] | TGI (SK-MEL-5 melanoma) [µM] | TGI (BT-549 breast) [µM] | TGI (HOP-92 NSCLC) [µM] | GI50 (LOX IMVI melanoma) [nM] | GI50 (HOP-92 NSCLC) [nM] | GI50 (HCT-116 colon) [nM] | GI50 (M14 melanoma) [nM] | GI50 (SNB-19 CNS) [nM] | GI50 (SF-268 CNS) [nM] | GI50 (SN12C renal) [nM] | GI50 (SF-295 CNS) [nM] | GI50 (SK-MEL-5 melanoma) [nM] | GI50 (BT-549 breast) [µM]
CCn1c(CCCc2nc3c([nH]2)c(=O)n(C)c(=O)n3C)nc2c1c(=O)n(C)c(=O)n2C | > 100 | > 100 | > 100 | > 100 | > 100 | > 100 | > 100 | 27.8 | > 100 |  |  |  |  |  |  |  |  |  |  | 
CCCCCCc1ccc(CCCCCCCC(=O)O)o1 | > 100 | > 100 | > 100 | > 100 |  | > 100 | > 100 | > 100 | > 100 | > 100 |  |  |  |  |  |  |  |  |  | 
N=c1ncn(C/C=C/c2ccccc2)c2nc[nH]c12 | > 100 | > 100 | > 100 | > 100 | > 100 | > 100 | > 100 | > 100 | > 100 | > 100 |  |  |  |  |  |  |  |  |  | 
Cc1ccc(C)n1-c1ccccc1C1C=Cn2c(=O)oc3c(OC(C)C)c(OC(C)C)c(O)c1c32 (stereo not drawn) | 38.4 | > 100 | > 100 | > 100 | > 100 | > 100 | > 100 | > 100 | > 100 | > 100 |  |  |  |  |  |  |  |  |  | 
O=[N+]([O-])c1c(O)c2nonc2c2nn(-c3ccccc3)nc12 | > 100 | > 100 | > 100 | > 100 | > 100 | > 100 | > 100 | > 100 | > 100 | > 100 |  |  |  |  |  |  |  |  |  | 
O=C(CC(=O)N1N=C(c2ccccc2)C(N=Nc2ccc(S(=O)(=O)CCOS(=O)(=O)O)cc2)C1=O)Nc1ccc(Cl)cc1 (stereo not drawn) | > 100 | > 100 | > 100 | > 100 | > 100 | > 100 | > 100 | > 100 | > 100 | > 100 |  |  |  |  |  |  |  |  |  | 
Cc1cc2nc3c(C#N)c(C)c(CCCl)c(Cl)n3c2cc1C | 2.88 | 3.06 | 6.16 | 36.3 | 3.76 | 3.63 | 13.8 | 8.82 | 7.15 | 4.76 |  |  |  |  |  |  |  |  |  | 
Cc1ccc(/C=c2\c(=O)[nH]c3nc4ccccc4c(=O)n23)cc1 | > 100 | > 100 | > 100 | > 100 | > 100 | > 100 | > 100 |  | 60.3 | > 100 |  |  |  |  |  |  |  |  |  | 
CCCN=C1NC(C)=CSC(Nc2ccccc2)=C1C#N |  | > 100 | > 100 | > 100 | > 100 | > 100 | > 100 | > 100 |  |  |  |  |  |  |  |  |  |  |  | 
O=C1CCCC1CC(CN1CCOCC1)Sc1nnnn1-c1ccccc1 (stereo not drawn) | > 100 | > 100 | > 100 | > 100 |  | > 100 | > 100 | > 100 | > 100 | > 100 |  |  |  |  |  |  |  |  |  | 
Cc1ccc2sc3c(NCCCN)nc4ccccc4c3c(=O)c2c1 | 3.08 | 3.42 | 3.61 | 3.69 | 3.45 | 3.13 | 3.32 | 3.35 | 37.4 | 4.65 | 1660 | 1440 | 1800 | 1910 | 1860 | 1740 | 1680 | 1800 | 1790 | 16.5
O=C(O)C(Cc1ccccc1)Cc1ccccc1 | > 100 | > 100 | > 100 | > 100 | > 100 | > 100 | > 100 | > 100 | > 100 |  |  |  |  |  |  |  |  |  |  | 
O/N=C1\C/C(=N\O)c2c(Br)sc(Br)c21 | 45.2 | > 100 | > 100 |  | 96.5 | > 100 | > 100 | > 100 | > 100 | > 100 |  |  |  |  |  |  |  |  |  | 
O=c1c(O)c(-c2ccccc2)oc2c(CP(=O)(O)O)cccc12 |  | > 100 | > 100 |  |  | > 100 | > 100 | > 100 | > 100 |  |  |  |  |  |  |  |  |  |  | 
Cc1nc(N)c(N2CCN(S(=O)(=O)N(Cc3ccccc3)Cc3ccccc3)CC2)c(=O)[nH]1 | > 100 | > 100 | > 100 | 74.7 | 73.5 | 80.7 | 65.8 |  | > 100 |  |  |  |  |  |  |  |  |  |  | 
CCOc1ccccc1N=NC1C(=O)N(C(=O)CC(=O)Nc2ccccc2C)N=C1C (stereo not drawn) | > 100 | > 100 | > 100 |  | 63.6 | > 100 | 36 | > 100 | > 100 | 40.8 |  |  |  |  |  |  |  |  |  | 
C=C1c2c(n(S(=O)(=O)c3ccccc3)c3ccccc23)[C@@]2(C(=O)OC)CC3C=CC2N1C3 | > 100 | > 100 | > 100 | > 100 | > 100 | > 100 | > 100 |  | > 100 | > 100 |  |  |  |  |  |  |  |  |  | 
COc1ccc(/C(=N/O)c2ccccc2C2=Nc3ccccc3C(NCc3ccccc3)O2)cc1C (stereo not drawn) | > 100 | > 100 | > 100 | > 100 | > 100 | > 100 | 67.3 | 32.8 |  | 71.9 |  |  |  |  |  |  |  |  |  | 
O=C1Sc2ccccc2C(=O)N2CCSC12 (stereo not drawn) | > 100 | > 100 | > 100 | > 100 |  | > 100 | > 100 | > 100 |  | > 100 |  |  |  |  |  |  |  |  |  | 
CC1CN(c2cc3c(cc2F)c(=O)c(C(=O)O)cn3-c2ccc(N3CCN(C)CC3)cn2)CC(C)N1 (stereo not drawn) |  | > 100 | > 100 | > 100 | > 100 | > 100 | > 100 |  | > 100 | > 100 |  |  |  |  |  |  |  |  |  | 

Source: PubChem BioAssay (NCI)
